Source: patent publication US20220257664A1, “METHOD FOR REGULATION OF SELECTIVE DIFFERENTIATION OF MUSCULOSKELETAL STEM CELLS” (CELLATOZ THERAPEUTICS, INC., priority 2019, published 2022)

B1: noggin: human noggin, ingredient 1) of the MSSC medium, 250 ng/mL (protein, UniProt Q13253 28-232, looked up)
Noggin: QHYLHIRPAPSDNLPLVDLIEHPDPIFDPKEKDLNETLLRSLLGGHYDPGFMATSPPEDRPGGGGGAAGGAEDLAELDQLLRQRPSGAMPSEIKGLEFSEGLAQGKKQRLSKKLRRKLQMWLWSQTFCPVLYAWNDLGSRFWPRYVKVGSCFSKRSCSVPEGMVCKPSKSVHLTVLRWRCQRRGGQRCGWIPIQYPIISECKCSC

Tests used:
hMSSCs = experiment: Induction of selective differentiation of hMSSCs transplanted into mouse; assay type: in vivo; details: mixed with heparin, transplanted into subcutaneous tissue of mouse; FIG. 8
Description: In order to measure the possibility of selective differentiation of hMSSCs, hMSSCs were transplanted into the kidney (kidney capsule) or subcutaneous tissue of Balb/c nude mouse by pretreating with various growth factors such as connective tissue growth factor, transforming growth factor, insulin, fibroblast growth factor, etc. and then preparing into a cell aggregate (4×10^5 cells) or mixing with a cell carrier. 3-6 weeks after the transplantation, tissue was analyzed after removing the transplanted cells.
For investigation of the selective differentiation capacity of the hMSSCs induced in the same manner as in Example 2 into muscle in vivo, hMSSCs were mixed with fibrin glue to which heparin was added and then transplanted into the subcutaneous tissue of an immunodeficient mouse. 7 weeks after the transplantation of hMSSCs, tissue was stained with H&E and the STEM101 antibody (Takara, Japan) binding to the human cell nucleus marker in order to identify whether the differentiated tissue was derived from the hMSSCs. In addition, the differentiated tissue was immunofluorescence staining with an antibody against the muscle marker MyoD (Thermo Fisher Scientific Inc., USA) in order to identify muscle cells. The cell nuclei were counterstained with DAPI. […]

hESCs = experiment: Differentiation tendency of MSSC medium vs. CM medium (number of differentiations out of 20 observations); assay type: cell-based, human; details: noggin contained, as compared to CM medium
Description: The differentiation capacity of a medium (hereinafter, referred to as “CM medium”) obtained by replacing human noggin (Life Technologies), which is the ingredient 1) of the seven ingredients of the MSSC medium of Example 2, with conditioned medium (culture supernatant obtained after culturing CF1 cells for 24 hours using complete medium wherein DMEM/F12 is replaced with knockout DMEM (knockout DMEM supplemented with 20% knockout serum replacement (Invitrogen, USA), 1 mM glutamine, 1% nonessential amino acids (Invitrogen, USA), 0.1 mM β-mercaptoethanol, 0.1% penicillin-streptomycin and 5 mg/mL bovine serum albumin) (the remaining ingredients 2)-7) are the same) was compared with that of the MSSC medium.
Noggin is generally used to maintain the characteristics of hESCs during culturing (Chaturvedi G, Simone P D, Ain R, Soares M J, Wolfe M W. Noggin maintains pluripotency of human embryonic stem cells grown on Matrigel. Cell Prolif. 2009 August; 42(4): 425-33).

Row | Molecule | selective differentiation of hMSSCs (hMSSCs) | increase of tendency of osteogenic differentiation (hESCs)
1 | heparin | differentiated selectively into muscle only | –
2 | B1 | – | ≥ 10 times
